Assay results: ChEMBL document CHEMBL1128410 (J Med Chem, 1995)

Target: Carbonic anhydrase 2 (Homo sapiens, UniProt P00918)
Description: Compound was tested for the binding affinity towards Carbonic anhydrase II by competitive fluorescence assay with dansylamide

Row | Kd [µM] | Structure (SMILES)
1 | 0.041 | NC(CO)C(=O)[C@@H](N)C(=O)NCCOCCOCCNC(=O)c1ccc(S(N)(=O)=O)cc1 (stereo not given in full)
2 | 0.019 | NCC(=O)[C@@H](N)C(=O)NCCOCCOCCNC(=O)c1ccc(S(N)(=O)=O)cc1
3 | 0.016 | CC(C)CC(N)C(=O)[C@@H](N)C(=O)NCCOCCOCCNC(=O)c1ccc(S(N)(=O)=O)cc1 (stereo not given in full)
4 | 0.05 | NCCCCC(N)C(=O)[C@@H](N)C(=O)NCCOCCOCCNC(=O)c1ccc(S(N)(=O)=O)cc1 (stereo not given in full)
5 | 0.1 | NC(CCC(=O)O)C(=O)[C@@H](N)C(=O)NCCOCCOCCNC(=O)c1ccc(S(N)(=O)=O)cc1 (stereo not given in full)
